For orientation: EC50 means the concentration at which the effect is half-maximal.

The structures appear in SMILES notation.

The text below walks through data of patent US20250114338A1, “TETRAHYDRO-PYRIDO[3,4-b]INDOLE ESTROGEN RECEPTOR MODULATORS AND USES THEREOF” (Genentech, Inc., priority 2014, published 2025).

estrogen receptor alpha (ESR1) in MCF7 breast cancer cells, sequence (P03372 whole entry): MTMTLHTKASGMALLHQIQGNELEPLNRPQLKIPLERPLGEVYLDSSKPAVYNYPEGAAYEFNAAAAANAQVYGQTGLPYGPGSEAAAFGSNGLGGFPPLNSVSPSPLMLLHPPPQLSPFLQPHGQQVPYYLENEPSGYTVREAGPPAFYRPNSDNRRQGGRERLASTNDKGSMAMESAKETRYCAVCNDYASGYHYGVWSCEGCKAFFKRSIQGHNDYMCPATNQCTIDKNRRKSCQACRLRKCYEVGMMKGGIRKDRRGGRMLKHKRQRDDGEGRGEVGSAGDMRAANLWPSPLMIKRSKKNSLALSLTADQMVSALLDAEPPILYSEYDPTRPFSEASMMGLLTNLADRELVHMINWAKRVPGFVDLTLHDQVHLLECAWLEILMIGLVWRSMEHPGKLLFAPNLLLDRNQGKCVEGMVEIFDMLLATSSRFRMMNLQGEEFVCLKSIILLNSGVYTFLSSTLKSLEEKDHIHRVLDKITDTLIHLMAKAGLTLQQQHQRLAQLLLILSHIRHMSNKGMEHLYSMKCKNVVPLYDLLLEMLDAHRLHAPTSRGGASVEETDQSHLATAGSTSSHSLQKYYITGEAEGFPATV

The target of the first experiment is estrogen receptor alpha (ESR1) in MCF7 breast cancer cells (Homo sapiens (Human), UniProt P03372). Put plainly: Breast Cancer Cell ERa High Content Fluorescence Imaging Degradation Assay (Example 901). To be noted: 4 hours, plateau of maximal effect, 0% = DMSO, 100% change = 5 nM Fulvestrant. In kind it is cell-based. As for the experimental part:
Where more than one name is associated with a Formula I compound or intermediate, the chemical structure shall define the compound. […] Cell plates were incubated at 37° C., for 4 hours. Fixation and permeabilization were carried out using a Biotek EL406 plate washer and dispenser as follows. […] Well contents were aspirated and washed 3 times with 100 μL/well of PBS. […] Samples were incubated for 2 hours at room temperature. […] Samples were incubated for 2 hours at room temperature. […] Quantitative fluorescence imaging of ESR1 was carried out using a Cellomics Arrayscan V (Thermo). […] Channel 1 (DNA stain) was used to define the nuclear region (Circ). […] The “Robust Fit” method was used to define the inflexion point of curve (EC50) and the plateau of the maximal effect (Sinf).
As to `C[C@@H]1Cc2c([nH]c3ccccc23)[C@@H](c2c(F)cc(OCCN3CC(CO)C3)cc2F)N1CC(C)(C)F` [Example 119, (1-(2-(3,5-difluoro-4-((1R,3R)-2-(2-fluoro-2-methylpropyl)-3-methyl-2,3,4,9-tetrahydro-1H-pyrido[3,4-b]indol-1-yl)phenoxy)ethyl)azetidin-3-yl)methanol], the “ER-alpha MCF7 HCS Sinf (%)” value is listed as −71.3%.

Take `C[C@@H]1Cc2c([nH]c3ccccc23)[C@@H](c2c(F)cc(OCCN3CC(C(F)F)C3)cc2F)N1CC(C)(C)F` [Example 105, (1R,3R)-1-(4-(2-(3-(difluoromethyl)azetidin-1-yl)ethoxy)-2,6-difluorophenyl)-2-(2-fluoro-2-methylpropyl)-3-methyl-2,3,4,9-tetrahydro-1H-pyrido[3,4-b]indole]: the “ER-alpha MCF7 HCS Sinf (%)” value is recorded as −94%.

For the compound `C[C@@H]1Cc2c([nH]c3ccccc23)[C@@H](c2c(F)cc(OCCN3CCCCC3)cc2F)N1CC(C)(C)F` [Example 118, (1R,3R)-1-(2,6-difluoro-4-(2-(piperidin-1-yl)ethoxy)phenyl)-2-(2-fluoro-2-methylpropyl)-3-methyl-2,3,4,9-tetrahydro-1H-pyrido[3,4-b]indole], the “ER-alpha MCF7 HCS Sinf (%)” value is −72.2%.

Regarding `C[C@@H]1Cc2c([nH]c3ccccc23)[C@@H](c2c(F)cc(OC3CN(CCCCl)C3)cc2F)N1CC(C)(C)F` [Example 106, (1R,3R)-1-(4-((1-(3-chloropropyl)azetidin-3-yl)oxy)-2,6-difluorophenyl)-2-(2-fluoro-2-methylpropyl)-3-methyl-2,3,4,9-tetrahydro-1H-pyrido[3,4-b]indole], the “ER-alpha MCF7 HCS Sinf (%)” value is recorded as −90.4%.

With `C[C@@H]1Cc2c([nH]c3ccccc23)[C@@H](c2c(F)cc(OCCN3CC[C@@H](CF)C3)cc2F)N1CC(C)(C)F` [Example 109, (1R,3R)-1-(2,6-difluoro-4-(2-((R)-3-(fluoromethyl)pyrrolidin-1-yl)ethoxy)phenyl)-2-(2-fluoro-2-methylpropyl)-3-methyl-2,3,4,9-tetrahydro-1H-pyrido[3,4-b]indole], the “ER-alpha MCF7 HCS Sinf (%)” value is −86.5%.

For the next experiment, the system named is ER-alpha MCF7. Put plainly: ER-alpha MCF7 HCS EC50; stated as measured by in vitro cell proliferation assays of Examples 902 and 903. The class given is cell-based. To be noted: Homo sapiens, MCF7, MCF7 cells; Table 2. The method, boiled down:
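MCF7 cells seeded 1000-2000 cells/well for 16 h, then treated with nine-point 1:2 DMSO dilution series in quadruplicate at 37 °C, 5% CO2 for 4 days. Viable cells quantified by CellTiter-Glo ATP luminescence; EC50 calculated. Controls: fulvestrant at final 100 nM, DMSO 0.2% v/v.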
Take `C[C@@H]1Cc2c([nH]c3ccccc23)[C@@H](c2c(F)cc(NC3CN(CCCF)C3)cc2F)N1CC(F)F` [Example 430, N-[4-[(1R,3R)-2-(2,2-difluoroethyl)-3-methyl-1,3,4,9-tetrahydropyrido[3,4-b]indol-1-yl]-3,5-difluoro-phenyl]-1-(3-fluoropropyl)azetidin-3-amine]: the EC50 was 0.065 nM.

Regarding `C[C@@H]1Cc2c([nH]c3ccccc23)[C@@H](c2c(F)cc(NC3CN(CCCF)C3)cc2F)N1C[C@](F)(C#N)CO` [Example 419, (S)-3-((1R,3R)-1-(2,6-difluoro-4-((1-(3-fluoropropyl)azetidin-3-yl)amino)phenyl)-3-methyl-3,4-dihydro-1H-pyrido[3,4-b]indol-2(9H)-yl)-2-fluoro-2-(hydroxymethyl) propanenitrile], the EC50 was determined as 0.026 nM.

`CC(C)(F)CN1[C@H](c2c(F)cc(OCCN3CC(CF)C3)cc2F)c2[nH]c3ccccc3c2CC1(C)C` [Example 257, (1R)-1-[2,6-difluoro-4-[2-[3-(fluoromethyl)azetidin-1-yl]ethoxy]phenyl]-2-(2-fluoro-2-methyl-propyl)-3,3-dimethyl-4,9-dihydro-1H-pyrido[3,4-b]indole]: the EC50 amounted to 1.09 nM.

Regarding `C[C@H]1Cc2c([nH]c3cc(F)ccc23)[C@H](c2c(F)cc(NC3CN(CCCF)C3)cc2F)N1CC(F)(F)F` [Example 397, N-(3,5-difluoro-4-((1S,3S)-7-fluoro-3-methyl-2-(2,2,2-trifluoroethyl)-2,3,4,9-tetrahydro-1H-pyrido[3,4-b]indol-1-yl)phenyl)-1-(3-fluoropropyl)azetidin-3-amine], the EC50 worked out at 33 nM.

In the case of `C[C@H]1Cc2c([nH]c3ccc(F)cc23)[C@H](c2c(F)cc(NC3CN(CCCF)C3)cc2F)N1CC(F)F` [Example 390, N-(4-((1S,3S)-2-(2,2-difluoroethyl)-6-fluoro-3-methyl-2,3,4,9-tetrahydro-1H-pyrido[3,4-b]indol-1-yl)-3,5-difluorophenyl)-1-(3-fluoropropyl)azetidin-3-amine], the EC50 stood at 9.7 nM.

Take `C[C@@H]1Cc2c([nH]c3ccccc23)[C@@H](c2c(F)cc(NC3CN(CCCF)C3)cc2F)N1C[C@@](C)(F)CO` [Example 288, (R)-3-((1R,3R)-1-(2,6-difluoro-4-((1-(3-fluoropropyl)azetidin-3-yl)amino)phenyl)-3-methyl-1,3,4,9-tetrahydro-2H-pyrido[3,4-b]indol-2-yl)-2-fluoro-2-methylpropan-1-ol]: the EC50 was determined as 0.0528 nM.

With `C[C@H]1Cc2c([nH]c3cccc(F)c23)[C@H](c2c(F)cc(NC3CN(CCCF)C3)cc2F)N1C[C@](C)(F)CO` [Example 401, (S)-3-((1S,3S)-1-(2,6-difluoro-4-((1-(3-fluoropropyl)azetidin-3-yl)amino)phenyl)-5-fluoro-3-methyl-3,4-dihydro-1H-pyrido[3,4-b]indol-2(9H)-yl)-2-fluoro-2-methylpropan-1-ol], the EC50 stood at 2.4 nM.

Consider `C[C@@H]1Cc2c([nH]c3ccccc23)[C@@H](c2c(F)cc(OCCN3CC(CF)C3)cc2F)N1C(=O)c1ccccc1` [Example 185, [(1R,3R)-1-[2,6-difluoro-4-[2-[3-(fluoromethyl)azetidin-1-yl]ethoxy]phenyl]-3-methyl-1,3,4,9-tetrahydropyrido[3,4-b]indol-2-yl]-phenyl-methanone], for which the EC50 turned out to be 14 nM.

For the compound `C[C@H](O)CN1[C@H](c2c(F)cc(OC3CN(CCCF)C3)cc2F)c2[nH]c3ccccc3c2C[C@H]1C` [Example 263, (S)-1-((1R,3R)-1-(2,6-difluoro-4-((1-(3-fluoropropyl)azetidin-3-yl)oxy)phenyl)-3-methyl-1,3,4,9-tetrahydro-2H-pyrido[3,4-b]indol-2-yl)propan-2-ol], the EC50 is 0.359 nM.

For the compound `C[C@@H]1Cc2c([nH]c3cc(F)c(F)cc23)[C@@H](c2c(F)cc(OC3CN(CCCF)C3)cc2F)N1CC(C)(C)F` [Example 428, (1R,3R)-1-(2,6-difluoro-4-(1-(3-fluoropropyl)azetidin-3-yloxy)phenyl)-6,7-difluoro-2-(2-fluoro-2-methylpropyl)-3-methyl-2,3,4,9-tetrahydro-1H-pyrido[3,4-b]indole], the EC50 came to 0.7 nM.

Consider `C[C@@H]1Cc2c([nH]c3ccccc23)[C@@H](c2ccc(NCCN3CC(CF)C3)cc2F)N1CC(C)(F)CO` (stereo partly drawn) [Example 327, 2-fluoro-3-((1R,3R)-1-(2-fluoro-4-((2-(3-(fluoromethyl)azetidin-1-yl)ethyl)amino)phenyl)-3-methyl-1,3,4,9-tetrahydro-2H-pyrido[3,4-b]indol-2-yl)-2-methylpropan-1-ol], for which the EC50 was found to be 0.347 nM.

As to `C[C@@H]1Cc2c([nH]c3ccccc23)[C@@H](c2c(F)cc(OC3CN(CCCF)C3)cc2F)N1C[C@H](CO)C(F)(F)F` [Example 375, (R)-2-(((1R,3R)-1-(2,6-difluoro-4-((1-(3-fluoropropyl)azetidin-3-yl)oxy)phenyl)-3-methyl-1,3,4,9-tetrahydro-2H-pyrido[3,4-b]indol-2-yl)methyl)-3,3,3-trifluoropropan-1-ol], the EC50 was found to be 0.764 nM.
